Measurements: US20240254129A1, “HETEROCYCLIC COMPOUNDS AND USES THEREOF” (Kumquat Biosciences Inc., priority 2021, published 2024)
Read-outs that look alike come from different tables or passages of the source.

Experiments:
[1] = molecular target: GST-tagged K-Ras mutant / His-tagged hSOS1 (Homo sapiens, UniProt P01116); assay: HTRF assay, K-Ras mutant / SOS1 interaction; format: binding; conditions: read-out: IC50 against mutant Kras
Method in brief: (§1)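 GST-tagged K-Ras (mutant or wildtype) with anti-GST-Eu donor was mixed with His-hSOS1 and anti-6His-XL665 acceptor in HEPES pH 7.4 buffer with NaCl, DTT, BSA and Igepal. After ≥10 min, HTRF was read (ex 337 nm, em 620/665 nm); 665/620 ratios gave IC50 from duplicate dilution series.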

wildtype Kras / hSOS1 = molecular target: T1, wildtype Kras / hSOS1 (Homo sapiens, UniProt P01116); assay: HTRF assay, wildtype Kras / SOS1 interaction; format: binding; conditions: read-out: IC50 against wildtype Kras
T1 construct: made in house; host or cells: E. coli BL21 (DE3)
T1 sequence (P01116 1-188 isoform P01116-2): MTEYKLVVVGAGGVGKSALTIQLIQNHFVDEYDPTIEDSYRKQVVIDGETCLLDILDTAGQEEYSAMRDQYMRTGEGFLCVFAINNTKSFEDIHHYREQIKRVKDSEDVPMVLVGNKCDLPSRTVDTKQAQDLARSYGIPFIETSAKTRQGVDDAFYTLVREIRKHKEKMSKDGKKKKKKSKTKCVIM
Method in brief: as §1

[2] = compound nos. 102-196, general methodology of example 5

Chain of GST-tagged K-Ras mutant / His-tagged hSOS1 (P01116 whole entry G12D, form open): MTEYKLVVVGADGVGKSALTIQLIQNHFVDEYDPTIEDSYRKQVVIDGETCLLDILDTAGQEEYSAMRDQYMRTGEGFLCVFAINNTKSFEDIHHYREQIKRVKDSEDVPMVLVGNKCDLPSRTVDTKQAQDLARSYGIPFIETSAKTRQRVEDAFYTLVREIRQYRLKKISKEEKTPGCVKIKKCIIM

Compound | IC50 ([1]; compound nos. 401-703) | IC50 (wildtype Kras / hSOS1; compound nos. 401-703) | IC50 [1, 2] | IC50 (wildtype Kras / hSOS1; [2])
Nc1cc(-c2c(Cl)cc3c(N4CCCCCC4)nc(OCC45CCCN4CCC5)nc3c2F)ccc1F [Compound 670, 5-(4-(azepan-1-yl)-6-chloro-8-fluoro-2-((tetrahydro-1H-pyrrolizin-7a(5H)-yl)meth-oxy)quinazolin-7-yl)-2-fluoroaniline] | > 0.5 µM | > 0.5 µM | – | –
Cc1ccc(C(N)=O)cc1-c1c(Cl)cc2c(N3CC4CCC(C3)N4)nc(OCC34CCCN3CCC4)nc2c1F [Compound 417, 3-(4-(3,8-diazabicyclo-[3.2.1]octan-3-yl)-6-chloro-8-fluoro-2-((tetrahydro-1H-pyrrolizin-7a(5H)-yl)meth-oxy)quinazolin-7-yl)-4-methylbenzamide] | > 0.5 µM | < 0.5 µM | – | –
CN1CCC[C@@H]1COc1nc(N2CCNCC(F)(F)C2)c2cc(Cl)c(-c3cccc4sc(N)nc34)c(F)c2n1 [Compound 113, 4-(6-chloro-4-(6,6-difluoro-1,4-diazepan-1-yl)-8-fluoro-2-(((R)-1-methylpyrrolidin-2-yl)methoxy)quinazolin-7-yl)benzo[d]thiazol-2-amine] | – | – | < 0.5 µM | < 0.5 µM
CN(C)CC1(COc2nc(N3C[C@H]4CC[C@@H](C3)N4)c3cc(Cl)c(-c4cc(O)cc5ccccc45)c(F)c3n2)CC1 [Compound 701, 4-(4-((1R,5S)-3,8-diazabicyclo[3.2.1]octan-3-yl)-6-chloro-2-((1-((dimethylamino)methyl)cyclopropyl)methoxy)-8-fluoroquinazolin-7-yl)naphthalen-2-ol] | < 0.5 µM | > 0.5 µM | – | –
CN1CCC[C@H]1COc1nc(N2CCNCC(F)(F)C2)c2cc(Cl)c(-c3cccc4sc(O)nc34)c(F)c2n1 [Compound 177, 4-(6-chloro-4-(6,6-difluoro-1,4-diazepan-1-yl)-8-fluoro-2-(((S)-1-methylpyrrolidin-2-yl)methoxy)quinazolin-7-yl)benzo[d]thiazol-2-ol] | – | – | > 0.5 µM | > 0.5 µM
N#CC1CCCN(c2nc(OCC34CCCN3CCC4)nc3c(F)c(-c4ccc(F)c5sc(N)nc45)c(Cl)cc23)CC1 (stereo not shown) [Compound 172, 1-(7-(2-amino-7-fluoro-benzo[d]thiazol-4-yl)-6-chloro-8-fluoro-2-((tetra-hydro-1H-pyrrolizin-7a(5H)-yl)methoxy)-quinazolin-4-yl)azepane-4-carbonitrile] | – | – | < 0.5 µM | < 0.5 µM
CO[C@@H]1CN(C)C[C@H]1Oc1nc(N2CC3CCC(C2)N3)c2cc(Cl)c(-c3ccc(F)c4sc(N)nc34)c(F)c2n1 [Compound 448, 4-(4-(3,8-diazabicyclo-[3.2.1]-octan-3-yl)-6-chloro-8-fluoro-2-(((3R,4R)-4-methoxy-1-methylpyrrolidin-3-yl)oxy)quinazolin-7-yl)-7-fluorobenzo[d]thiazol-2-amine] | < 0.5 µM | < 0.5 µM | – | –
CC1CCCCN(c2nc(OC[C@@H]3CCCN3C)nc3c(F)c(-c4cccc5sc(N)nc45)c(Cl)cc23)C1 (stereo partly drawn) [Compound 550, 4-(6-chloro-8-fluoro-4-(3-methylazepan-1-yl)-2-(((S)-1-methylpyrrolidin-2-yl)-methoxy)quinazolin-7-yl)-benzo[d]thiazol-2-amine] | < 0.5 µM | > 0.5 µM | – | –
CC(C)CN1CCCN(c2nc(OCC34CCCN3CCC4)nc3c(F)c(-c4ccc(F)c5sc(N)nc45)c(Cl)cc23)CC1 [Compound 460, 4-(6-chloro-8-fluoro-4-(4-isobutyl-1,4-diazepan-1-yl)-2-((tetrahydro-1H-pyrrolizin-7a(5H)-yl)methoxy)quin-azolin-7-yl)-7-fluorobenzo-[d]thiazol-2-amine-] | < 0.5 µM | < 0.5 µM | – | –
Nc1nc2c(-c3c(Cl)cc4c(N5CCNCC(F)(F)C5)nc(OCC56CCCN5C(=O)CC6)nc4c3F)cccc2s1 (stereo not shown) [Compound 151, 7a-(((7-(2-aminobenzo[d]-thiazol-4-yl)-6-chloro-4-(6,6-difluoro-1,4-diazepan-1-yl)-8-fluoroquinazolin-2-yl)oxy)methyl)hexahydro-3H-pyrrolizin-3-one] | – | – | > 0.5 µM | > 0.5 µM
Nc1nc2c(-c3c(Cl)cc4c(N5CCCC6(CCNC6)C5)nc(OC[C@@]56CCCN5C[C@H](F)C6)nc4c3F)ccc(F)c2s1 (stereo partly drawn) [Compound 532, 4-(6-chloro-8-fluoro-2-(((2R,7aS)-2-fluorotetra-hydro-1H-pyrrolizin-7a(5H)-yl)methoxy)-4-(2,7-diaza-spiro[4.5]decan-7-yl)quin-azolin-7-yl)-7-fluorobenzo-[d]thiazol-2-amine] | < 0.5 µM | > 0.5 µM | – | –
Cc1ccc2[nH]nc(N)c2c1-c1c(Cl)cc2c(N3CCNCC(F)(F)C3)nc(OC[C@@H]3CCCN3C)nc2c1F [Compound 171, 4-(6-chloro-4-(6,6-difluoro-1,4-diazepan-1-yl)-8-fluoro-2-(((S)-1-methylpyrrolidin-2-yl)methoxy)quinazolin-7-yl)-5-methyl-1H-indazol-3-amine] | – | – | > 0.5 µM | > 0.5 µM
Cc1cc(N)nc(-c2c(Cl)cc3c(N4CCNCC(F)(F)C4)nc(OC[C@@H]4CCCN4C)nc3c2F)c1 [Compound 189, (S)-6-(6-chloro-4-(6,6-difluoro-1,4-diazepan-1-yl)-8-fluoro-2-((1-methyl-pyrrolidin-2-yl)methoxy)-quinazolin-7-yl)-4-methyl-pyridin-2-amine] | – | – | > 0.5 µM | > 0.5 µM
Nc1nc2c(-c3ccc4c(N5CC6CCC(C5)N6)nc(OC[C@@]56CCCN5C[C@H](F)C6)nc4c3F)ccc(F)c2s1 [Compound 612, 4-(4-(3,8-diazabicyclo-[3.2.1]octan-3-yl)-8-fluoro-2-(((2R,7aS)-2-fluorotetra-hydro-1H-pyrrolizin-7a(5H)-yl)methoxy)quinazolin-7-yl)-7-fluorobenzo[d]thiazol-2-amine] | > 0.5 µM | > 0.5 µM | – | –
CN1CCC[C@H]1COc1nc(N2CCCC(NC3CNC3)CC2)c2cc(Cl)c(-c3cccc4sc(N)nc34)c(F)c2n1 (stereo partly drawn) [Compound 554, 4-(4-(4-(azetidin-3-yl-amino)azepan-1-yl)-6-chloro-8-fluoro-2-(((S)-1-methylpyrrolidin-2-yl)-methoxy)quinazolin-7-yl)-benzo[d]thiazol-2-amine] | > 0.5 µM | > 0.5 µM | – | –
N#CCC1CNCCN(c2nc(OCC34CCCN3CCC4)nc3c(F)c(-c4ccc(F)c5sc(N)nc45)c(Cl)cc23)C1 (stereo not shown) [Compound 187, 2-(1-(7-(2-amino-7-fluoro-benzo[d]thiazol-4-yl)-6-chloro-8-fluoro-2-((tetra-hydro-1H-pyrrolizin-7a(5H)-yl)methoxy)quin-azolin-4-yl)-1,4-diazepan-6-yl)acetonitrile] | – | – | < 0.5 µM | < 0.5 µM
Nc1nc2c(-c3c(Cl)cc4c(N5CCNCC(F)C5)nc(OCC56CCCN5CCC6)nc4c3F)ccc(F)c2s1 (stereo not shown) [Compound 163, 4-(6-chloro-8-fluoro-4-(6-fluoro-1,4-diazepan-1-yl)-2-((tetrahydro-1H-pyrrolizin-7a(5H)-yl)methoxy)quin-azolin-7-yl)-7-fluorobenzo-[d]thiazol-2-amine] | – | – | < 0.5 µM | < 0.5 µM
Nc1nc2c(-c3c(Cl)cc4c(N5CCNCC(F)(F)C5)ncnc4c3F)cccc2s1 [Compound 110, 4-(6-chloro-4-(6,6-difluoro-1,4-diazepan-1-yl)-8-fluoro-quinazolin-7-yl)benzo[d]-thiazol-2-amine] | – | – | > 0.5 µM | > 0.5 µM
N#Cc1c(N)sc2c(F)ccc(-c3c(Cl)cc4c(N5CC6CCC(C5)N6C5CCOC5)nc(OC[C@@]56CCCN5C[C@H](F)C6)nc4c3F)c12 (stereo partly drawn) [Compound 605, 2-amino-4-(6-chloro-8-fluoro-2-(((2R,7aS)-2-fluoro-tetrahydro-1H-pyrrolizin-7a(5H)-yl)methoxy)-4-((1R,5S)-8-(tetrahydro-furan-3-yl)-3,8-diazabicyclo-[3.2.1]octan-3-yl)quinazolin-7-yl)-7-fluorobenzo[b]thio-phene-3-carbonitrile] | < 0.5 µM | > 0.5 µM | – | –
NCC1C2CCC1CN(c1nc(OCC34CCCN3CCC4)nc3c(F)c(-c4ccc(F)c5sc(N)nc45)c(Cl)cc13)C2 [Compound 406, 4-(4-((1R,5S,8r)-8-(amino-methyl)-3-azabicyclo[3.2.1]-octan-3-yl)-6-chloro-8-fluoro-2-((tetrahydro-1H-pyrrolizin-7a(5H)-yl)meth-oxy)quinazolin-7-yl)-7-fluorobenzo[d]thiazol-2-amine] | < 0.5 µM | < 0.5 µM | – | –
Cc1ccc2oc(N)nc2c1-c1c(Cl)cc2c(N3CCNCC(F)(F)C3)nc(OC[C@@]34CCCN3C[C@H](F)C4)nc2c1F [Compound 463, 4-(6-chloro-4-(6,6-difluoro-1,4-diazepan-1-yl)-8-fluoro-2-(((2R,7aS)-2-fluorotetra-hydro-1H-pyrrolizin-7a(5H)-yl)methoxy)quinazolin-7-yl)-5-methylbenzo[d]oxazol-2-amine] | < 0.5 µM | < 0.5 µM | – | –
Oc1ccc2c(c1)N(c1ccc3c(N4CCCCCC4)nc(OCC45CCCN4CCC5)nc3c1F)CCC2 [Compound 584, 1-(4-(azepan-1-yl)-8-fluoro-2-((tetrahydro-1H-pyrrol-izin-7a(5H)-yl)methoxy)-quinazolin-7-yl)-1,2,3,4-tetrahydroquinolin-7-ol] | > 0.5 µM | > 0.5 µM | – | –
CO[C@@H]1C[C@@H](COc2nc(N3CCNCC(F)(F)C3)c3cc(Cl)c(-c4cccc5sc(N)nc45)c(F)c3n2)N(C)C1 [Compound 121, 4-(6-chloro-4-(6,6-difluoro-1,4-diazepan-1-yl)-8-fluoro-2-(((2S,4R)-4-methoxy-1-methylpyrrolidin-2-yl)-methoxy)quinazolin-7-yl)-benzo[d]thiazol-2-amine] | – | – | < 0.5 µM | < 0.5 µM
